The record followed here is ChEMBL document CHEMBL1122784, “Antitumor imidazotetrazines. 1. Synthesis and chemistry of 8-carbamoyl-3-(2-chloroethyl)imidazo[5,1-d]-1,2,3,5-tetrazin-4(3 H)-one , a novel broad-spectrum antitumor agent” (J Med Chem, 1984).

For test [1], the system named is Mus musculus. Put plainly: Compound was evaluated for number of survivors in L1210 leukemia implanted BDF1 mice on day 0 after ip administration of 20 mg/kg/day on day 60 out of 5 mice. Format: functional. The following applies: route intraperitoneal.
For test [2], the system named is Mus musculus. As to the kind of experiment: Compound was tested for mortality in L1210 leukemia implanted BDF1 mice on day 0 after ip administration of 20 mg/kg/day on days 1-5 out of 5 mice. Format: functional. As to conditions: route intraperitoneal.

For the molecule `NC(=O)c1ncn2c(=O)n(CCCl)nnc12` [MITOZOLOMIDE], the Survivors with Mus musculus [1] was 1. Besides, the Mortality with Mus musculus [2] worked out at 0.
